According to patent US20080274947A1, “Hydroxy-Substituted Diphenylazetidinones for the Treatment of Hyperlipidemia” (SANOFI-AVENTIS DEUTSCHLAND GMBH, priority 2005, published 2008):

System: serum LDL cholesterol
Assay: Hamster model: serum LDL cholesterol reduction on a cholesterol-supplemented diet
Format: in vivo, Syrian hamsters
Conditions: Mesocricetus auratus, po, once a day by gavage on 12 consecutive days, LDL cholesterol reduction vs placebo-treated controls
Description: Syrian hamsters (in groups of n=5-9) receive a standard diet (ssniff, Soest Germany) supplemented with 0.1% cholesterol.
The test substances are made up in 0.5%/(methylcellulose (Sigma)/5% Solutol (BASF, Ludwigshafen) or another suitable vehicle, and at least three dosages are administered once a day by gavage on 12 consecutive days.
On day 12, the animals are exsanguinated from the aorta under deep anesthesia. The serum is analyzed for total cholesterol, LDL-cholesterol, HDL-cholesterol and triglycerides using standard kits from Roche in accordance with the guidelines of the German Society for Clinical Chemistry.
The ED50 values for LDL cholesterol reduction compared with placebo-treated control animals were calculated using a standard logistic model for the dose-effect plot.
For `O=C(Oc1ccc([C@@H]2[C@@H](CC[C@H](O)c3ccc(F)cc3)C(=O)N2c2ccc(F)cc2)c(O)c1)N1CCN(S(=O)(=O)O)CC1` [I, Ammonium 4-(4-{1-(4-Fluorophenyl)-3-[3-(4-fluorophenyl)-3-hydroxypropyl]-4-oxoazetidin-2-yl}-3-hydroxyphenoxycarbonyl)piperazine-1-sulfamate], the ED50 was < 0.1 mg/kg.
`O=C(OCc1ccc([C@@H]2[C@@H](CC[C@H](O)c3ccc(F)cc3)C(=O)N2c2ccc(F)cc2)c(O)c1)N1CCN(S(=O)(=O)O)CC1` [Example A, Ammonium 4-(4-{1-(4-fluorophenyl)-3-[3-(4-fluorophenyl)-3-hydroxypropyl]-4-oxoazetidin-2-yl}-3-hydroxybenzyloxycarbonyl)piperazine-1-sulfamate] gave an ED50 of 0.2 mg/kg.
Compound `O=C(Nc1ccc([C@@H]2[C@@H](CC[C@H](O)c3ccc(F)cc3)C(=O)N2c2ccc(F)cc2)c(O)c1)N1CCN(S(=O)(=O)O)CC1` [Example E, Ammonium 4-(4-{1-(4-fluorophenyl)-3-[3-(4-fluorophenyl)-3-hydroxypropyl]-4-oxoazetidin-2-yl}-3-hydroxyphenylcarbamoyl)piperazine-1-sulfamate] has an ED50 of 0.1 mg/kg.

System: not listed separately
Assay: Liver exposure: substance level in liver homogenate by LC-MS/MS
Format: in vivo
Conditions: rat, oral, male Wistar rats, 10 mg/kg of body weight, liver dissected after 2 h, read-out: Cmax values in the liver (L)
Description: The liver exposure of the compounds of the invention compared with the corresponding compounds without a hydroxyl function in the 2″ position was investigated in vivo in male Wistar rats. A rat anesthetized with ketamine/midazolam (ketamine 80 mg/kg i.p.+midazolam 5 mg/kg i.p.) undergoes laparotomy in the Linea alba, and then the product is administered intraduodenally. During this it is attempted to prevent direct reflux of the product into the stomach. The animals remain under anesthesia throughout the experiment. At the end of the experiment, after 2 h, the liver is dissected out for determination of the substance. The substance levels in the liver homogenates are determined by LC-MS/MS. For this purpose, initially the proteins are precipitated by adding acetonitrile in the presence of an internal standard. Part of the supernatant is mixed with a suitable buffer, and an aliquot of the mixture is injected. The measurement is evaluated via the peak areas of analyte and internal standard.
Cmax values in the liver (L) after oral administration of 10 mg/kg of body weight
For `N.O=C1[C@H](CC[C@H](O)c2ccc(F)cc2)[C@@H](c2ccc(OCCCOS(=O)(=O)O)cc2O)N1c1ccc(F)cc1`, the Cmax at 2 h was 300 ng/mL.
In the case of `N.O=C1[C@H](CC[C@H](O)c2ccc(F)cc2)[C@@H](c2ccc(OCCCOS(=O)(=O)O)cc2)N1c1ccc(F)cc1` [reference compound], the Cmax at 2 h is reported as 24300 ng/mL.
With `O=C1[C@H](CC[C@H](O)c2ccc(F)cc2)[C@@H](c2ccc(OCc3ccc(C[N+]45CCN(CC4)CC5)cc3)cc2O)N1c1ccc(F)cc1.[Br-]` the Cmax at 2 h was 80 ng/mL.
Compound `O=C1[C@H](CC[C@H](O)c2ccc(F)cc2)[C@@H](c2ccc(OCc3ccc(C[N+]45CCN(CC4)CC5)cc3)cc2)N1c1ccc(F)cc1.[Br-]` [reference compound] has a Cmax at 2 h of 200 ng/mL.

System: uptake of 14C-cholesterol in the liver (cholesterol absorption)
Assay: Cholesterol absorption test: uptake of 14C-cholesterol in the liver after an oral test meal
Format: in vivo, NMRI mice
Conditions: mouse, dose which halves (50%) the uptake of 14C-cholesterol in the liver relative to control group
Description: Influence on Cholesterol Absorption+^3H-Taurocholic Acid Excretion on the Basis of the Fecal Excretion in Mice, Rats or Hamsters
NMRI mice, Wistar rats, or golden Syrian hamsters (in groups of n=4-6) are kept with a standard diet (Altromin, Lage (Lippe)) in metabolism cages. The animals are fasted from the afternoon before administration of the radioactive tracer (^14C-cholesterol) and adapted to wire grids.
In addition, the animals are labeled with ^3H-TCA (taurocholic acid) s.c. 24 hours before the oral administration of the test meal (^14C-cholesterol in Intralipid® 20, Pharmacia-Upjohn) (e.g. 1 μCi/mouse to 5 μCi/rat).
Cholesterol absorption test: 0.25 ml/mouse Intralipid® 20 (Pharmacia-Upjohn) (spiking with 0.25 μCi ^14C-cholesterol in 0.1 mg of cholesterol) is administered orally by gavage.
Test substances are made up separately in 0.5%/(methylcellulose (Sigma)/5% Solutol (BASF, Ludwigshafen) or a suitable vehicle.
The volume for administration of the test substance is 0.5 ml/mouse. The test substance is administered orally immediately before the test meal (Intralipid with ^14C-cholesterol label) (cholesterol absorption test).
Feces are collected for 24 h: the fecal elimination of ^14C-cholesterol and ^3H taurocholic acid (TCA) is determined after 24 h.
The livers are removed, homogenized and combusted in aliquots in an oximate (model 307, Packard) to determine the amount of ^14C-cholesterol taken up/absorbed.
The amount of ^14C-cholesterol taken up in the liver is evaluated in relation to a control group (vehicle-treated) as a function of the dose of the substance administered. The ED50 values are interpolated from a dose-effect plot as the dose which halves (50%) the uptake of ^14C-cholesterol in the liver relative to a control group.
For `O=C1C(CC[C@H](O)c2ccc(F)cc2)[C@@H](c2ccc(OCc3ccc(C[N+]45CCN(CC4)CC5)cc3)cc2O)N1c1ccc(F)cc1.[Br-]` (stereo partly shown) [Example N, 1-[4-(4-{1-(4-Fluorophenyl)-3-[3-(4-fluorophenyl)-3-hydroxypropyl]-4-oxoazetidin-2-yl}-3-hydroxyphenoxymethyl)benzyl]-4-aza-1-azoniabicyclo[2.2.2]octane bromide], the “ED50 (liver)” value was 0.01 mg/mouse.
In the case of `O=C1C(CC[C@H](O)c2ccc(F)cc2)[C@@H](c2ccc(CN3CCN(S(=O)(=O)O)CC3)cc2O)N1c1ccc(F)cc1` (stereo partly shown) [Example B, Ammonium 4-(4-{1-(4-Fluorophenyl)-3-[3-(4-fluorophenyl)-3-hydroxypropyl]-4-oxoazetidin-2-yl}-3-hydroxybenzyl)piperazine-1-sulfamate], the “ED50 (liver)” value is reported as <0.1 mg/mouse.
In the case of `O=C1[C@H](CC[C@H](O)c2ccc(F)cc2)[C@@H](c2ccc(NS(=O)(=O)O)cc2O)N1c1ccc(F)cc1` [Example F, Ammonium (4-[1-(4-fluorophenyl)-3-[3-(4-fluorophenyl)-3-hydroxypropyl]-4-oxoazetidin-2-yl]-3-hydroxyphenyl)sulfamate], the “ED50 (liver)” value is reported as 0.3 mg/mouse.
With `O=C(Oc1ccc([C@@H]2[C@@H](CC[C@H](O)c3ccc(F)cc3)C(=O)N2c2ccc(F)cc2)c(O)c1)N1CCN(S(=O)(=O)O)CC1` [I, Ammonium 4-(4-{1-(4-Fluorophenyl)-3-[3-(4-fluorophenyl)-3-hydroxypropyl]-4-oxoazetidin-2-yl}-3-hydroxyphenoxycarbonyl)piperazine-1-sulfamate] the “ED50 (liver)” value was 0.01 mg/mouse.
For `O=C(OCc1ccc([C@@H]2[C@@H](CC[C@H](O)c3ccc(F)cc3)C(=O)N2c2ccc(F)cc2)c(O)c1)N1CCN(S(=O)(=O)O)CC1` [Example A, Ammonium 4-(4-{1-(4-fluorophenyl)-3-[3-(4-fluorophenyl)-3-hydroxypropyl]-4-oxoazetidin-2-yl}-3-hydroxybenzyloxycarbonyl)piperazine-1-sulfamate], the “ED50 (liver)” value was 0.01 mg/mouse.
With `O=C(Nc1ccc([C@@H]2[C@@H](CC[C@H](O)c3ccc(F)cc3)C(=O)N2c2ccc(F)cc2)c(O)c1)N1CCN(S(=O)(=O)O)CC1` [Example E, Ammonium 4-(4-{1-(4-fluorophenyl)-3-[3-(4-fluorophenyl)-3-hydroxypropyl]-4-oxoazetidin-2-yl}-3-hydroxyphenylcarbamoyl)piperazine-1-sulfamate] the “ED50 (liver)” value was <0.01 mg/mouse.
With `O=C1[C@H](CC[C@H](O)c2ccc(F)cc2)[C@@H](c2ccc(OCCCOS(=O)(=O)O)cc2O)N1c1ccc(F)cc1` [Example K] the “ED50 (liver)” value was <0.01 mg/mouse.
In the case of `O=C(C[N+]12CCN(CC1)CC2)Nc1ccc([C@@H]2[C@@H](CC[C@H](O)c3ccc(F)cc3)C(=O)N2c2ccc(F)cc2)c(O)c1.[I-]` [H, 1-[(4-{1-(4-Fluorophenyl)-3-[3-(4-fluorophenyl)-3-hydroxypropyl]-4-oxoazetidin-2-yl}-3-hydroxyphenylcarbamoyl)methyl]-4-aza-1-azoniabicyclo[2.2.2]octane iodide], the “ED50 (liver)” value is reported as 0.01 mg/mouse.
With `C[n+]1ccn(CCCCOc2ccc([C@@H]3C(CC[C@H](O)c4ccc(F)cc4)C(=O)N3c3ccc(F)cc3)c(O)c2)c1.[I-]` (stereo in doubt) [Example M, 3-[4-(4-{1-(4-Fluorophenyl)-3-[3-(4-fluorophenyl)-3-hydroxypropyl]-4-oxoazetidin-2-yl}-3-hydroxyphenoxy)butyl]-1-methyl-3H-imidazol-1-ium iodide] the “ED50 (liver)” value was <0.1 mg/mouse.
For `COc1ccc([C@@H]2[C@@H](CC[C@H](O)c3ccc(F)cc3)C(=O)N2c2ccc(CNC(=O)N3CCN(C(=O)C[N+]45CCN(CC4)CC5)CC3)cc2)c(O)c1.[Cl-]` [Example P, 1-[2-(4-{4-[3-[3-(4-Fluorophenyl)-3-hydroxypropyl]-2-(2-hydroxy-4-methoxyphenyl)-4-oxoazetidin-1-yl]benzylcarbamoyl}piperazin-1-yl)-2-oxoethyl]-4-aza-1-azoniabicyclo[2.2.2]octane chloride], the “ED50 (liver)” value was 0.3 mg/mouse.
For `C[N+]1(C)CCN(C(=O)OCc2ccc([C@@H]3[C@@H](CC[C@H](O)c4ccc(F)cc4)C(=O)N3c3ccc(F)cc3)c(O)c2)CC1.[I-]` [Example C, 4-(4-{1-(4-Fluorophenyl)-3-[3-(4-fluorophenyl)-3-hydroxypropyl]-4-oxoazetidin-2-yl}-3-hydroxybenzyloxycarbonyl)-1,1-dimethylpiperazin-1-ium iodide], the “ED50 (liver)” value was 0.1 mg/mouse.
In the case of `COc1ccc([C@@H]2[C@@H](CC[C@H](O)c3ccc(F)cc3)C(=O)N2c2ccc(CNC(=O)CCCCCCCCCCNC(=O)[C@H](O)[C@@H](O)[C@H](O)[C@H](O)CO)cc2)c(O)c1` [Example O, 11-(2,3,4,5,6-Pentahydroxyhexanoylamino)undecanoic acid 4-[3-[3-(4-fluorophenyl)-3-hydroxypropyl]-2-(2-hydroxy-4-methoxyphenyl)-4-oxoazetidin-1-yl]benzylamide], the “ED50 (liver)” value is reported as <0.01 mg/mouse.
